Data from patent US11185593B2, “Alkylating agent for alkylating target with driver oncogene mutation” (Chiba Prefecture, priority 2013, dated 2021).

Columns and labels:
[1] = tested on: gene sequence of the codon 12 mutation of the KRAS gene; assay: Confirmation of alkylation of KRAS codon 12 mutation sequence, high resolution gel electrophoresis; type: biochemical; settings: 23° C., 17 hours
Description: A 25 μM pair of two fragments (5′-[…]-3′ (SEQ ID NO: 1) and 3′-[…]-5′ (SEQ ID NO: 2)) (final volume: 50 μL) was annealed to obtain a DNA fragment. The annealed fragment was ligated to a pGEM-T easy vector manufactured by […]. Thereafter, Escherichia coli (JM109) competent cells manufactured by Promega were transformed with the obtained product, and the resulting cells were then cultured at 37° C. overnight in a plate comprising an LB medium containing 100 μg/mL ampicillin. A transformed white colony of interest was identified by colony direct PCR using a 500 nM primer set (T7: 5′-TAATACGACTCACTATAGG-3′ (SEQ ID NO: 3); and sp6: 5′-[…]-3′ (SEQ ID NO: 4)) and 10 μL of a reaction solution containing 1 U GoTaq® Green Master Mix manufactured by Promega. The following amplification cycle was applied. […]
A DNA fragment, 213 base pairs in length, the 5′-terminus of which had been labeled with Texas Red, was synthesized using the above-described plasmid and primers (sp6: 5′-ATTTAGGTGACACTATAG-3′ (SEQ ID NO: 5), and T7: 5′-[…]-3′ (SEQ ID NO: 6), with 5′-terminus labeled with Texas Red). The obtained DNA fragment, the 5′-terminus of which had been labeled with Texas Red, was purified using PCR-Clean Up Kit manufactured by Sigma, and the concentration was then determined by UV absorption. […]

[2] = tested on: KRAS gene; assay: Semi-quantitative analysis of gene expression by RT-PCR; type: cell-based, human; settings: LS180 (KRAS gene codon 12 mutation), 50 nM, 48 hours, FIG. 11B
Description: HT29 and LS180 were each cultured in a 12-well plate. On the following day, the cells were treated with 50 nM KR12 or KR13, and were then cultured for 48 hours. Thereafter, the cultured cells were harvested, and RNA was then extracted. For the extraction, RT-PCR was carried out using RNeasy mini kit (Qiagen, CA). Subsequently, using the extracted RNA as a template, cDNA for reverse transcription was prepared by employing Super Script VILO cDNA Synthesis Kit (Invitrogen, CA). Using the prepared cDNA as a template, PCR was carried out. After a reaction had been carried out at 94° C. for 5 minutes, a reaction cycle of 94° C.-30 seconds, 55° C.-30 seconds, and 72° C.-30 seconds was repeated 20 times. Finally, an elongation reaction was carried out at 72° C. for 7 minutes. The PCR product was subjected to electrophoresis on 2% agarose gel. The amount of the PCR product was calculated using a photograph of a band stained with ethidium bromide.
The below-mentioned primer set was used in PCR.
A forward primer (sense) and a reverse primer (antisense), which amplify both mutant and wild-type KRAS genes, and a forward primer (sense) and a reverse primer (antisense) for an RPS18 (ribosomal protein S18) gene used as an internal standard are shown below.

[3] = tested on: LS180 (KRAS-MUThetero); assay: Suppression of tumor growth in nude mice, LS180 transplanted; type: in vivo; settings: nude mice with LS180 cells; 3.4 mmol KR12 via the caudal vein; FIG. 14B
Description: The below-mentioned 3 types of PBS solutions containing each type of cells were subcutaneously transplanted into the femurs of nude mice (i.e., HT29 into 7 mice, LS180 into 7 mice, and SW480 into 6 mice), and thereafter, at a time point in which a tumor adhered to the living body of each mouse and the tumor volume became approximately 100 mm^3, a drug was prepared with a composition of 3.4 mmol KR12 (1.36 mM KR12 dissolved in 2.5 μL of DMSO and 197.5 μL of PBS), or of a DMSO/PBS control (2.5 μL of DMSO and 197.5 μL of PBS). The prepared drug was subjected to sonication for 10 minutes, and 200 μL of the drug was administered to each mouse via the caudal vein thereof. The body weight and the tumor size were measured once three days, and the size of the tumor was measured by the method of 0.52×L×W×D(1/6×π×L×W×D).
LS180 (KRAS-MUThetero): (transplanted in an amount of 3×10^6 cells/100 μl PBS into the subcutis of each mouse; a cell line having a heterozygous KRAS gene codon 12 mutation G12D)

[4] = Mass spectrometry of mouse urine and mouse bile for KR12 and decomposed product; type: in vivo
Description: The FITC-labeled KR12 (10 nmol) was administered into the vein of nude mice, into which SW480 cells had been transplanted, and thereafter, their fluorescent image was observed over time. […] Thereafter, twenty-four hours after the administration, the mice were dissected, and incorporation of FITC into various organs was observed. […] Furthermore, localization of KR12 in the cells of tumor, liver, and kidney was observed under a fluorescence microscope. […] The presence of absence of HR12 and a decomposed product thereof in mouse urine and mouse bile was examined by mass spectrometry. […] In the case of tumor cells, lipids are required for the synthesis of a cell membrane or the like, together with cell division, and thus, in general, incorporation of lipids is increased. In addition, excretion via the lymphatics is undeveloped. […] Such accumulation of KR12 in the liver and the kidney is observed even in normal cells. However, since KR12 cannot retain in the cells, it is discharged into bile and/or urine, and is then excreted from these organs. That is, KR12 has excellent effects that it is promptly discharged from normal cells and retains in cancer cells for a long period of time.

SMILES: CC(=O)Nc1cn(C)c(C(=O)Nc2cc(C(=O)NCCC(=O)Nc3cn(C)c(C(=O)Nc4cn(C)c(C(=O)Nc5cc(C(=O)Nc6cn(C)c(C(=O)NCCCC(=O)Nc7cc(C(=O)Nc8cn(C)c(C(=O)NCCC(=O)Nc9cc(C(=O)Nc%10cc(C(=O)Nc%11ccc%12[nH]c(C(=O)N%13CC(CCl)c%14c%13cc(O)c%13ccccc%14%13)cc%12c%11)n(C)c%10)n(C)c9)n8)n(C)c7)n6)n(C)c5)n4)n3)n(C)c2)n1 (centres unmarked) [KR12]
- alkylation of the gene sequence of the codon 12 mutation of the KRAS gene ([1]; mutated KRAS sequence of AsPC-1 cells (G12D), FIG. 7B): specifically induced concentration-dependent alkylation
- alkylation of the gene sequence of the codon 12 mutation of the KRAS gene ([1]; mutated KRAS sequence of SW480 cells (G12V), FIG. 7A): specifically induced concentration-dependent alkylation
- expression of the KRAS gene [2]: significantly suppressed
- tumor growth [3]: significantly suppressed
- metabolic degradation of excreted compound [4]: discharged in a state in which it was not subjected to metabolic degradation
